# Assay results from patent US20160040128A1, “METHOD” (PCI BIOTECH AS, priority 2013, published 2016).
# Assays:
# [1] = test system: bone-marrow-derived murine DCs; assay: In vitro MHC class-I antigen presentation: OVA-pulsed, Amphinex- and light-treated DCs co-cultured with OT-1 CD8 T cells, IFN-γ ELISA; type: cell-based, mouse
# Procedure: The DCs were washed and illuminated for the indicated time intervals before adding 100,000 purified CD8 T cells from OT-1 mice. […] After washing, the DCs were illuminated for 15 seconds.
# The antigen OVA (Sigma Aldrich, Buchs, Switzerland) and the photosensitiser Amphinex (TPCS2a, PCI Biotech, Lysaker, Norway) were incubated with DCs using petri dishes. Typically, DCs were pulsed for 2 h with OVA and Amphinex. The DCs were then collected and washed by centrifugation before re-suspension in medium and further incubation on petri dishes for 2 h in Amphinex- and OVA-free medium; this allows removal of Amphinex from the outer plasma membrane. The DCs were then washed, counted and plated in round-bottom 96-well plates (typically 100,000 DCs per well), and the cells were exposed to light (435 nm) using LumiSource® (PCI Biotech) for different time intervals. Sex-matched CD8-purified OT-1 cells were then added to the DC plates at 100,000 cells per well and incubated at 37° C. overnight. The secretion of IFN-γ into supernatants was measured using ELISA according to the protocol from eBioscience (Ready-SET-Go!®, Bender MedSystems, Vienna, Austria).
# After removing the photosensitiser and antigen by washing and incubation for another 2 hours, the DCs were transferred to 96-well plates at 100,000 cells per well and treated with light at different time-doses before admixing an equal number of purified OT-1 CD8 T cells. […] Of note, antigen presentation and IFN-γ secretion of soluble OVA was improved by Amphinex alone, but not by light alone (FIG. 1a). To further test the sensitivity of DCs to PCI treatment, equivalent assays were performed using a single light dose of 15 seconds, but a wide range of Amphinex doses (0.0005-0.5 μg/ml), namely 0.003, 0.006, 0.0125, 0.025, 0.05, 0.1 and 0.2 μg/ml.
# [2] = test system: Bone-marrow derived murine DCs; assay: PCI-induced apoptosis and cell death of DCs, Annexin-V / propidium iodide flow cytometry; type: cell-based; conditions: 0.2 μg/ml Amphinex, 435 nm light 1 to 10 minutes, 2 hours rest at 37° C.
# Procedure: The DCs were then washed and seeded into culture plates and treated with light for various time periods (minutes) as indicated. The cells were cultured for another 2 hours (or overnight) and the viability was analysed by flow cytometry after staining with Annexin-V and propidium iodide (PI). The results are illustrated as representative dotbiots (a) or summarised in histograms (b).
# The DC viability was tested 2 hours after the PCI treatment by staining the cells with propidium iodide and Annexin-V to identify necrotic and apoptotic cells, respectively, which were analysed by flow cytometry (FACSCanto from BD Biosciences, San Jose, USA). The analysis was performed using the FlowJo 8.5.2 software from Tree Star, Inc. (Ashland, Oreg.). […] Cytokines were analysed by ELISA from supernatants of 24 hours cultures, and flow cytometry was done on cells after 48 hours incubation. […]
# Therefore in a series of experiments, we analysed cell death and apoptosis by flow cytometry after staining of cells with propidium iodide and fluorescence-labelled anti-Annexin-V. A concentration of 0.2 μg/ml Amphinex induced light-dose dependent apoptosis and cell death upon illumination with 435 nm light for 1 to 10 minutes (FIG. 2a); the DCs were rested at 37° C. for 2 hours after light treatment before staining and acquisition. […]
# DCs [3] = assay: Activation of DCs: cytokine secretion (TNF-α, IL-6, IL-12, IL-1β) by ELISA; type: cell-based, mouse
# Procedure: (§1) The cells were then washed and cultured in Amphinex- and OVA-free medium for another 2 hours before being treated with Lumisource® light for 3 minutes. The DCs were then cultured overnight before collection of supernatants for analysis of the cytokines TNF-α (a), IL-6 (b), IL-12 (c) and IL-1β (d). To measure the expression of CD80 by flow cytometry, DCs were cultured with 0, 0.1 or 1 μg/ml Amphinex and 0 or 10 μg/ml OVA as indicated (e). The histograms are representative of triplicates and show cells that were gated on viable and CD11c-positive cells. Arrows indicate samples that were treated with light for 3 min.
# (§2) The DC viability was tested 2 hours after the PCI treatment by staining the cells with propidium iodide and Annexin-V to identify necrotic and apoptotic cells, respectively, which were analysed by flow cytometry (FACSCanto from BD Biosciences, San Jose, USA). The analysis was performed using the FlowJo 8.5.2 software from Tree Star, Inc. (Ashland, Oreg.). Activation of DCs was further tested by measuring the secretion of TNF-α, IL-6, IL-12 and IL-1β by ELISA (eBioscience) and the expression of MHC I, MHC II, CD40, CD80, CD83 and CD86 by flow cytometry. Briefly, the DCs were incubated for 2 hours with Amphinex or lipopolysaccharide E. coli clone 026:B6 (Sigma Aldrich), washed, incubated for another 2 hours in fresh medium, illuminated for 3 min with Lumisource® light, and incubated. Cytokines were analysed by ELISA from supernatants of 24 hours cultures, and flow cytometry was done on cells after 48 hours incubation. All FACS antibodies were purchased from BD Pharmingen (Basel, Switzerland) or from eBioscience.
# We further tested the activation of DCs and their innate immune reactions after PCI treatment. Adjuvants and especially pathogen-associated molecular patterns (PAMPs) typically activate DCs and other antigen presenting cells via stimulation of pathogen recognition receptors such as Toll-like receptors, NOD-like receptors, C-type lectin and mannose receptors. Such activation then is typically characterised by secretion cytokines important for stimulation and regulation of further innate as well as adoptive immune responses. […] Although weak, the adjuvant effect with regard to IL-6 seemed light dependent, as IL-6 secretion was not increased by Amphinex or light alone, but only by their combination. However, the effect was much weaker than after stimulation of DCs with 1 μg/ml lipopolysaccharide (LPS). While stimulation of TNF-α and IL-6 secretion characterises the general adjuvant potential of a compound or a treatment, stimulation of IL-12 and IL-1β illustrates the potential to trigger Th1 T-cell responses and inflammasome, respectively.
# DCs [4] = assay: Activation of DCs: surface marker expression by flow cytometry; type: cell-based, mouse
# Procedure: as §1, §2
# DC constitutively expressed the co-stimulatory molecules CD80 and CD86 (FIG. 3e; CD80 only shown). […] The expression of CD40, MHC I and MHC II was not affected by Amphinex treatment (not shown).
# [5] = PCI treatment: 1 μg/ml Amphinex plus 3 min light
# [6] = PCI treatment: 1 μg/ml Amphinex plus 3 min light, measured after 22 hours incubation
substance,measurement,setting,value
Disulfonated tetraphenyl chlorin [Amphinex],"immune responses (IFN-γ secretion), 0.05 μg/ml compared with 0.2 μg/ml Amphinex",[1]; 0.05 vs 0.2 μg/ml Amphinex,stronger immune responses
same,antigen presentation (IFN-γ secretion by OT-1 CD8 T cells),"[1]; Amphinex 0.025 and 0.05 μg/ml, light 15 seconds",facilitated antigen presentation
same,antigen presentation and IFN-γ secretion of soluble OVA,"[1]; Amphinex alone, without light",improved
same,antigen presentation,[1]; Amphinex combined with high light doses,clear detrimental effect
same,IFN-γ secretion by OT-1 CD8 T cells,"[1]; Amphinex doses higher than 0.05 μg/ml, light 15 seconds",declined
same,MHC-1 antigen presentation as measured by IFN-γ secretion,"[1]; DCs pulsed 2 h with OVA with 0.05 or 0.2 μg/ml Amphinex vs OVA only, IFN-γ after 24 hours",significantly increased
same,amount of cells dying,[2],50-60%
same,apoptotic cells,[2],approx. 20%
same,IL-6 secretion,"DCs [3]; Amphinex alone, without light",not increased
same,cytokine-stimulating (adjuvant) effect compared with 1 μg/ml lipopolysaccharide (LPS),DCs [3]; PCI treatment (Amphinex plus light) vs 1 μg/ml LPS,much weaker
same,IL-1β secretion,DCs [3]; [5],neither were notably stimulated
same,IL-12 secretion,DCs [3]; [5],neither were notably stimulated
same,IL-6 secretion,DCs [3]; [6],weak stimulation
same,TNF-α secretion,DCs [3]; [6],weak stimulation
same,CD40 expression,DCs [4]; Amphinex treatment,not affected
same,MHC I expression,DCs [4]; Amphinex treatment,not affected
same,MHC II expression,DCs [4]; Amphinex treatment,not affected
same,CD80 expression,"DCs [4]; Amphinex-treated DCs also treated with light 3 min, with or without OVA, gated on viable CD11c-positive cells",down-regulation
